According to patent US8507476B2, “Substituted arylamide diazepinopyrimidone derivatives” (Sanofi, priority 2008, dated 2013):
Counter-ions that a name gives are not always drawn.

What was measured:
GSK3β = GSK3β (Homo sapiens, UniProt P49841); experiment: Inhibitory activity against GSK3β (33P-ATP phosphorylation of prephosphorylated GS1 peptide); assay type: biochemical; settings: protocol 4: commercial GSK3beta (Millipore), 7.5 μM GS1 peptide, 10 μM ATP, 90 minutes at room temperature
Protocol: Inhibitory Activity of the Medicament of the Present Invention Against GSK3β Four different protocols can be used. In a first protocol: 7.5 μM of prephosphorylated GS1 peptide and 10 μM ATP (containing 300,000 cpm of ^33P-ATP) were incubated in 25 mM Tris-HCl, pH 7.5, 0.6 mM DTT, 6 mM MgCl2, 0.6 mM EGTA, 0.05 mg/ml BSA buffer for 1 hour at room temperature in the presence of GSK3beta (total reaction volume: 100 microliters). In a second protocol: 4.1 μM of prephosphorylated GS1 peptide and 42 μM ATP (containing 260,000 cpm ^33P-ATP) were incubated in 80 mM Mes-NaOH, pH 6.5, 1 mM Mg acetate, 0.5 mM EGTA, 5 mM 2-mercaptoethanol, 0.02% Tween 20, 10% glycerol buffer for 2 hours at room temperature in the presence of GSK3beta. In a third protocol: 7.5 μM of prephosphorylated GS1 peptide and 10 μM ATP (containing 300,000 cpm of ^33P-ATP) were incubated in 50 mM Hepes, pH 7.2, 1 mM DTT, 1 mM MgCl2, 1 mM EGTA, 0.01% Tween 20 buffer for one hour at room temperature in the presence of GSK3beta (total reaction volume: 100 microliters). In a fourth protocol: 7.5 μM of prephosphorylated GS1 peptide and 10 μM ATP (containing 300,000 cpm of ^33P-ATP) were incubated in 50 mM Hepes, pH 7.2, 1 mM DTT, 1 mM MgCl2, 1 mM EGTA, 0.01% Tween 20 buffer for 90 minutes at room temperature in the presence of commercial GSK3beta (Millipore) (total reaction volume: 100 microliters). Inhibitors were solubilised in DMSO (final solvent concentration in the reaction medium, 1%). The reaction was stopped with 100 microliters of a solution made of 25 g polyphosphoric acid (85% P2O5), 126 ml 85% H3PO4, H2O to 500 ml and then diluted to 1:100 before use. An aliquot of the reaction mixture was then transferred to Whatman P81 cation exchange filters and rinsed with the solution described above. Incorporated ^33P radioactivity was determined by liquid scintillation spectrometry. The phosphorylated GS-1 peptide had the following sequence: NH2-[…](P)EDEE-COOH. (Woodgett, J. R. (1989) Analytical Biochemistry 180, 237-241.

Chain of GSK3β (P49841 whole entry): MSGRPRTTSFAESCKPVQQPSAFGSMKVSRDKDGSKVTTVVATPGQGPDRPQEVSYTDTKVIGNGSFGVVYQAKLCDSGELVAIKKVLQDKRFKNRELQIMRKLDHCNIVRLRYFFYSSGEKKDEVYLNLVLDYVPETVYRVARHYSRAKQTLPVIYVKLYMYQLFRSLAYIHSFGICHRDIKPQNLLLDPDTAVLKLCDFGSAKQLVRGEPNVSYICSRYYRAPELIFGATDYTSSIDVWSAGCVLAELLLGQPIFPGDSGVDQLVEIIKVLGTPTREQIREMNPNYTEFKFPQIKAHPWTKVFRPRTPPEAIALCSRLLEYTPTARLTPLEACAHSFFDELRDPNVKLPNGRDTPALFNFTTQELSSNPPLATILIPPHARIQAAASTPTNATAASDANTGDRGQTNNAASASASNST

Q: What does the source list for `COc1cc(Cl)ccc1C(=O)NC1CNCCn2c1nc(-c1ccncn1)cc2=O` (single isomer, unassigned; (+)) [Compound No. 12, (+)-4-Chloro-2-methoxy-N-(4-oxo-2-pyrimidin-4-yl-4,5,6,7,8,9-hexahydro-1,4a,7-triaza-benzocyclohepten-9-yl)-benzamide]?
A: IC50 (GSK3β): 0.3 nM; melting point: 240 to 242 °C

Q: With `COc1cc(Cl)ccc1C(=O)NC1CN(C2CCCC2)CCn2c1nc(-c1ccncn1)cc2=O` (racemic) [compound 7, (+/−)-4-Chloro-N-(7-cyclopentyl-4-oxo-2-pyrimidin-4-yl-4,5,6,7,8,9-hexahydro-1,4a,7-triaza-benzocyclohepten-9-yl)-2-methoxy-benzamide] as the compound, how does the IC50 (GSK3β) read?
A: 46 nM

Q: For `CCOC(=O)N1CCn2c(nc(-c3ccncc3)cc2=O)C(NC(=O)c2ccc(F)cc2OC)C1` (racemic) [compound 35, (+/−)-9-(4-Fluoro-2-methoxy-benzoylamino)-4-oxo-2-pyridin-4-yl-5,6,8,9-tetrahydro-4H-1,4a,7-triaza-benzocycloheptene-7-carboxylic acid ethyl ester], which IC50 (GSK3β) is on record?
A: 12 nM

Q: And the melting point?
A: 210 to 212 °C

Q: Which melting point does the source give for `COc1cc(Cl)ccc1C(=O)NC1CN(C2CCCC2)CCn2c1nc(-c1ccncn1)cc2=O` (racemic) (as salt: HCl) [compound 7, (+/−)-4-Chloro-N-(7-cyclopentyl-4-oxo-2-pyrimidin-4-yl-4,5,6,7,8,9-hexahydro-1,4a,7-triaza-benzocyclohepten-9-yl)-2-methoxy-benzamide] here?
A: 243 to 245 °C

Q: What does the source list for `CCOC(=O)N1CCn2c(nc(-c3ccncn3)cc2=O)C(NC(=O)c2ccccc2OC)C1` (racemic) [compound 21, (+/−)-9-(2-Methoxy-benzoylamino)-4-oxo-2-pyrimidin-4-yl-5,6,8,9-tetrahydro-4H-1,4a,7-triaza-benzocycloheptene-7-carboxylic acid ethyl ester]?
A: IC50 (GSK3β): 5 nM; melting point: 182 to 184 °C
